The target in assay [1] is His tagged PTPN2 (TC45) protein (Homo sapiens (Human), UniProt P17706). The experiment in a line: PTPN2 Mobility Shift Assay (MSA). The format is biochemical. The following applies: for Dihydrobenzofuran or Indoline x-fold>potency biochemical: x-fold versus corresponding chromane comparator, PTPN2 MSA. The procedure: Example III-1: Mobility Shift Assay (MSA) Used to Determine Potency of PTPN2 Inhibitors
Compound activity was determined using in house His tagged PTPN2 (TC45) protein (SEQ ID NO: 1) in an in vitro enzymatic reaction. The enzymatic assay used to determine activity was a mobility shift assay using a LabChip EZ Reader by Caliper Life Sciences. The enzymatic reaction was carried out in assay buffer (50 mM HEPES pH 7.5, 1 mM EGTA, 10 mM EDTA, 0.01% Tween® 20, and 2 mM DTT). The compounds were dispensed on a white 384 well ProxiPlate™ (PerkinElmer Catalog #6008289) plate using the Labcyte Echo at varying concentrations (12 point, 1:3 dilution). The enzyme (at 0.5 nM) was incubated with compound for 10 minutes at room temperature. Thereafter, the substrate (phosphorylated insulin receptor probe sequence: ((OG488)-(NH—CH2—CH2—O—CH2—CH2—O—CH2—CO)-T-R-D-I—(PY)-E-T-D-Y—Y—R—K—K—NH2) (SEQ ID NO: 2) was added at 2 μM to the plates and incubated for another 10 minutes at room temperature. Finally, a quench solution (water and 4-bromo-3-(2-oxo-2-propoxyethoxy)-5-(3-{[1-(phenylmethanesulfonyl)piperidin-4-yl]amino}phenyl)thiophene-2-carboxylic acid) was added to the plates, which were then run on the EZ Reader (excitation 488 nm, emission 530 nm) to measure % conversion (the amount of phosphorylated substrate which was de-phosphorylated by PTPN2). […] The % inhibition was then used to calculate the IC50 values.

In assay [2] the target is His tagged full-length PTPN1 protein (Homo sapiens (Human), UniProt P18031). The experiment in a line: PTPN1 Mobility Shift Assay (MSA). The format is biochemical. The following applies: enzyme 0.5 nM, substrate 2 μM. The protocol: Example III-2: Mobility Shift Assay (MSA) Used to Determine Potency of PTPN1 Inhibitors
Compound activity was determined using in house His tagged full-length PTPN1 protein (SEQ ID NO: 3) in an in vitro enzymatic reaction. The enzymatic assay used to determine activity is a mobility shift assay using a LabChip EZ Reader by Caliper Life Sciences. The enzymatic reaction was carried out in assay buffer (50 mM HEPES pH 7.5, 1 mM EGTA, 10 mM EDTA, 0.01% Tween® 20, and 2 mM DTT). The compounds were dispensed on a white 384 well ProxiPlate™ (PerkinElmer Cat ^#6008289) plate using a Labcyte Echo® liquid handler at varying concentrations (12 point, 1:3 dilution). The enzyme (at 0.5 nM) was incubated with compound for 10 minutes at room temperature. Thereafter, the substrate (phosphorylated insulin receptor probe sequence: ((OG488)-(NH—CH2—CH2—O—CH2—CH2—O—CH2—CO)-T-R-D-I—(PY)-E-T-D-Y—Y—R—K—K—NH2) (SEQ ID NO: 2) was added at 2 μM to the plates and incubated for another 10 minutes at room temperature. Finally, a quench solution (water and 4-bromo-3-(2-oxo-2-propoxyethoxy)-5-(3-{[1-(phenylmethanesulfonyl)piperidin-4-yl]amino}phenyl)thiophene-2-carboxylic acid) was added to the plates, which were then run on the EZ Reader (excitation 488 nm, emission 530 nm) to measure % conversion (the amount of phosphorylated substrate which was de-phosphorylated by PTPN1). […] The % inhibition was then used to calculate the IC50 values.

The subject of assay [3] is IFNγ-induced STAT1 phosphorylation (pSTAT1) in B16F10 cells. The experiment in a line: B16F10 Phospho-STAT1 HTRF proximal pharmacodynamic (PD) assay. The format is cell-based, murine. The following applies: for EC50: B16-F10, B16F10 cells; for Dihydrobenzofuran or Indoline x-fold>potency cellular: x-fold versus corresponding chromane comparator, B16F10 pSTAT1. The protocol: Example III-3: B16F10 (Murine Melanoma Cells) Phospho-STAT1 HTRF Proximal Pharmacodynamic (PD) Assay
B16F10 cells were grown and maintained in high glucose DMEM (Gibco, Catalog^#11965-092, Dun Laoghaire Co Dublin) supplemented with 10% fetal bovine serum (Gibco, Catalog^#10082-139, Dun Laoghaire Co Dublin). The cells were pelleted and resuspended in high glucose DMEM without phenol red (Gibco, Catalog^#11054-020, Dun Laoghaire Co Dublin), supplemented with 10% fetal bovine serum and plated in a 384 well Corning plate (product^#3765, Corning, NY) at 11,000 cells per well in a volume of 20 μL. The cells were dosed with the compounds of interest using an Echo Liquid Handler (Beckman Coulter, Brea, CA) at 50 μM top dose with 3-fold dilutions down to 0.002679 μM for a 10-point dose response. The plate was incubated for 3 hours at 37° C. and subsequently treated with recombinant mouse IFNγ (R&D Systems, Catalog^#485-MI, Minneapolis, MN; 100 nM final concentration) for 10 minutes at 37° C. to induce STAT1 phosphorylation followed by 3.3 μM staurosporine treatment for 1 hour at 37° C. to terminate phosphorylation. Media was then aspirated and 20 μL of 1× lysis buffer/blocking reagent (Cisbio Phospho-STAT1 kit, part^# 63ADK026PEH, Bedford, MA) was added. The plate was placed on a plate shaker for 30 minutes at room temperature, sealed, and stored at −80° C. until needed. To thaw, the plate was placed on shaker at room temperature until completely thawed while the antibody master mix was made (1:40 Phospho-STAT1 Eu Cryptate antibody, 1:40 Phospho-STAT d2 antibody, with the detection buffer; Cisbio Phospho-STAT1 kit, part^#63ADK026PEH, Bedford, MA). The antibody master mix was then dispensed at 4 μL per well into a 384 ProxiPlate Plus (PerkinElmer, part^#6008289, Waltham, MA) and 16 μL of lysate was added from the Corning plate to the Proxiplate using a VIAFLO 384 (INTEGRA). The plate was incubated for 3 hours at room temperature and read on an EnVision® (Perkin Elmer) plate reader with laser excitation at 335 nm and emission at 665 nm. Dotmatics Studies (Bishop's Stortford, UK) was utilized to generate all dose-response curves and calculate EC50s and are shown in Table 2.
For orientation: In TR-FRET formats the signal depends on donor and acceptor labels being close together.

Where [4] appears, read: Table 3, dihydrobenzofuran or indoline compound (X = O or NH).
Where [5] appears, read: 3 hours compound, 100 nM mouse IFNγ 10 minutes, read-out: B16F10 IFNγ Induced pSTAT1 EC50.
[6] abbreviates: Mus musculus, Table 3, dihydrobenzofuran or indoline compound (X = O or NH), read-out: pSTAT1 EC50.

Structures are written as SMILES. Like-named read-outs stand apart in the source and are kept apart here.

What is called IC50 is the midpoint of a concentration-inhibition curve. One may read the EC50 as the concentration that produces a half-maximal response.

Chain of His tagged PTPN2 (TC45) protein (P17706 other isoform, or with tags, fused parts or gaps): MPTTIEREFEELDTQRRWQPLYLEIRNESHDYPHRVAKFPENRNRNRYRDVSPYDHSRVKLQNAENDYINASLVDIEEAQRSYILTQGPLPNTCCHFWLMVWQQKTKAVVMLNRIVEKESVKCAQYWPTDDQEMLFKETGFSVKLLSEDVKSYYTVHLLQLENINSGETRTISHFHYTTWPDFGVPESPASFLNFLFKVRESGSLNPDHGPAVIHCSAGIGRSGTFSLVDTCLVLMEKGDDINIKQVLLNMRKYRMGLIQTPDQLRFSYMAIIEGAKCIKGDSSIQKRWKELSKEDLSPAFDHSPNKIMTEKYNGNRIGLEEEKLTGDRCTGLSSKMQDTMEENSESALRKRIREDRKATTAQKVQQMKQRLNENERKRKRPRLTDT
Chain of His tagged full-length PTPN1 protein (P18031 whole entry): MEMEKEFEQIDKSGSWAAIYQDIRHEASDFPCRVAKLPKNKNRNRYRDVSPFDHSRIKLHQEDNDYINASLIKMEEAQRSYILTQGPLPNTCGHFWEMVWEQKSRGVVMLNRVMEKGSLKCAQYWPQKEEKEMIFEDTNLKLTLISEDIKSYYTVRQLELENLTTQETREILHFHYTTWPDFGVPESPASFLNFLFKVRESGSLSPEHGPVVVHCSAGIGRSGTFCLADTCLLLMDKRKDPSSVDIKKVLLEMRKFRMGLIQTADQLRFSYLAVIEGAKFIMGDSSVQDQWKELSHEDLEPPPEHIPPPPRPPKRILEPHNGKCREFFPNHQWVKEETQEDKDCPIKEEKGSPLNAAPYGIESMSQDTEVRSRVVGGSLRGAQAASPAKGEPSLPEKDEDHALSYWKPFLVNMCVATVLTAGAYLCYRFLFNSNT

Turning to `CC(C)CCNC[C@H]1Cc2c(cc(O)c(N3CC(=O)NS3(=O)=O)c2F)O1` [Compound 115, 5-[(2R)-4-fluoro-6-hydroxy-2-{[(3-methylbutyl)amino]methyl}-2,3-dihydro-1-benzofuran-5-yl]-1λ^6,2,5-thiadiazolidine-1,1,3-trione], the half-maximal inhibitory concentration (IC50) is 17.1 nM in assay [1] (setting [4]); 10 to 100 nM in assay [1] (enzyme 0.5 nM, substrate 2 μM); 10 to 100 nM in assay [2]. For the same molecule, the “Dihydrobenzofuran or Indoline x-fold>potency biochemical” value in assay [1] stood at 0.9. The EC50 in assay [3] (setting [5]) and in assay [3] (setting [6]) was 835 nM in each case. The “Dihydrobenzofuran or Indoline x-fold>potency cellular” value in assay [3] was determined as 8.3.
Regarding `O=C1CN(c2c(O)cc3c(c2F)C[C@H](CNCC2COC2)O3)S(=O)(=O)N1` [Compound 120, 5-[(2R)-4-fluoro-6-hydroxy-2-({[(oxetan-3-yl)methyl]amino}methyl)-2,3-dihydro-1-benzofuran-5-yl]-1λ^6,2,5-thiadiazolidine-1,1,3-trione], the IC50 is 10 to 100 nM in assay [1] (enzyme 0.5 nM, substrate 2 μM) and 10 to 100 nM in assay [2]. In addition, the EC50 in assay [3] (setting [5]) was 1610 nM.
With `CC(C)C1CC(CNC[C@H]2Cc3c(cc(O)c(N4CC(=O)NS4(=O)=O)c3F)N2)C1` (stereo partly drawn) [Compound 154, 5-{(2R)-4-fluoro-6-hydroxy-2-[({[3-(propan-2-yl)cyclobutyl]methyl}amino)methyl]-2,3-dihydro-1H-indol-5-yl}-1λ^6,2,5-thiadiazolidine-1,1,3-trione], the IC50 was less than 10 nM in assay [1] (enzyme 0.5 nM, substrate 2 μM) and 10 to 100 nM in assay [2]. In addition, the EC50 in assay [3] (setting [5]) came out at 1880 nM.
For `CCCCNC[C@H]1Cc2c(cc(O)c(N3CC(=O)NS3(=O)=O)c2F)N1` [Compound 150, 5-{(2R)-2-[(butylamino)methyl]-4-fluoro-6-hydroxy-2,3-dihydro-1H-indol-5-yl}-1λ^6,2,5-thiadiazolidine-1,1,3-trione], in that order: 10 to 100 nM, 10 to 100 nM and 2180 nM.
Consider `O=C1CN(c2c(O)cc3c(c2F)C[C@H](CNCC2CCC(C(F)(F)F)CC2)O3)S(=O)(=O)N1` (stereo partly drawn) [Compound 130, 5-{(2R)-4-fluoro-6-hydroxy-2-[({[4-(trifluoromethyl)cyclohexyl]methyl}amino)methyl]-2,3-dihydro-1-benzofuran-5-yl}-1λ^6,2,5-thiadiazolidine-1,1,3-trione], for which the IC50 in assay [1] (setting [4]) is 4.38 nM; in assay [1] (enzyme 0.5 nM, substrate 2 μM), less than 10 nM; in assay [2] it was 10 to 100 nM. Besides, in assay [1], the “Dihydrobenzofuran or Indoline x-fold>potency biochemical” value stood at 6.1. Also, the EC50 in assay [3] (setting [5]) and in assay [3] (setting [6]) was greater than 50000 nM in each case. Further, the “Dihydrobenzofuran or Indoline x-fold>potency cellular” value in assay [3] was roughly 1.0.
Take `O=C1CN(c2c(O)cc3c(c2F)C[C@H](CNCC2CC(F)(F)C2)N3)S(=O)(=O)N1` [Compound 143, 5-[(2R)-2-({[(3,3-difluorocyclobutyl)methyl]amino}methyl)-4-fluoro-6-hydroxy-2,3-dihydro-1H-indol-5-yl]-1λ^6,2,5-thiadiazolidine-1,1,3-trione]: the IC50 in assay [1] (enzyme 0.5 nM, substrate 2 μM) lay in the range of 10 to 100 nM; in assay [2], 10 to 100 nM. Besides, in assay [3] (setting [5]), the EC50 came to 1000 nM.
Regarding `O=C1CN(c2c(O)cc3c(c2F)C[C@H](CNCCC(F)F)N3)S(=O)(=O)N1` [Compound 140, 5-[(2R)-2-{[(3,3-difluoropropyl)amino]methyl}-4-fluoro-6-hydroxy-2,3-dihydro-1H-indol-5-yl]-1λ^6,2,5-thiadiazolidine-1,1,3-trione], the half-maximal inhibitory concentration (IC50) in assay [1] (setting [4]) is 15.2 nM; in assay [1] (enzyme 0.5 nM, substrate 2 μM), 10 to 100 nM; in assay [2], 10 to 100 nM. Also, in assay [1], the “Dihydrobenzofuran or Indoline x-fold>potency biochemical” value came to 0.6. The half-maximal effective concentration (EC50) in assay [3] (setting [5]) and in assay [3] (setting [6]) was 701 nM in each case. Further, in assay [3], the “Dihydrobenzofuran or Indoline x-fold>potency cellular” value is given as 5.1.
With `O=C1CN(c2c(O)cc3c(c2F)C[C@H](CNCC2CCOCC2)N3)S(=O)(=O)N1` [Compound 138, 5-[(2R)-4-fluoro-6-hydroxy-2-({[(oxan-4-yl)methyl]amino}methyl)-2,3-dihydro-1H-indol-5-yl]-1λ^6,2,5-thiadiazolidine-1,1,3-trione], the half-maximal inhibitory concentration (IC50) is 21.6 nM in assay [1] (setting [4]); 10 to 100 nM in assay [1] (enzyme 0.5 nM, substrate 2 μM); 10 to 100 nM in assay [2]. For the same molecule, the “Dihydrobenzofuran or Indoline x-fold>potency biochemical” value in assay [1] turned out to be 0.8. The half-maximal effective concentration (EC50) in assay [3] (setting [5]) was 1560 nM; in assay [3] (setting [6]) it was 156000 nM. The “Dihydrobenzofuran or Indoline x-fold>potency cellular” value in assay [3] came to 20.6.
For the molecule `O=C1CN(c2c(O)cc3c(c2F)C[C@H](CN(CC2CC2)CC2CC2)O3)S(=O)(=O)N1` [Compound 118, 5-[(2R)-2-{[bis(cyclopropylmethyl)amino]methyl}-4-fluoro-6-hydroxy-2,3-dihydro-1-benzofuran-5-yl]-1λ^6,2,5-thiadiazolidine-1,1,3-trione], the concentration for half-maximal inhibition (IC50) in assay [1] (enzyme 0.5 nM, substrate 2 μM) fell in the range of 10 to 100 nM; in assay [2], 10 to 100 nM. Moreover, the EC50 in assay [3] (setting [5]) is 20100 nM.
On to `CCCNC[C@H]1Cc2c(cc(O)c(N3CC(=O)NS3(=O)=O)c2F)N1` [Compound 135, 5-{(2R)-4-fluoro-6-hydroxy-2-[(propylamino)methyl]-2,3-dihydro-1H-indol-5-yl}-1λ^6,2,5-thiadiazolidine-1,1,3-trione], for which the IC50 in assay [1] (enzyme 0.5 nM, substrate 2 μM) was 10 to 100 nM; in assay [2], 10 to 100 nM. In addition, the half-maximal effective concentration (EC50) in assay [3] (setting [5]) was determined as 756 nM.
`CCCC(C)NC[C@H]1Cc2c(cc(O)c(N3CC(=O)NS3(=O)=O)c2F)N1` (stereo partly drawn) [Compound 148, 5-[(2R)-4-fluoro-6-hydroxy-2-{[(pentan-2-yl)amino]methyl}-2,3-dihydro-1H-indol-5-yl]-1λ^6,2,5-thiadiazolidine-1,1,3-trione]: the 50% inhibitory concentration (IC50) is less than 10 nM in assay [1] (enzyme 0.5 nM, substrate 2 μM) and 10 to 100 nM in assay [2]. Further, the EC50 in assay [3] (setting [5]) turned out to be 1850 nM.
